# From ChEMBL document CHEMBL5356958, “Discovery of a Highly Potent and Selective MYOF Inhibitor with Improved Water Solubility for the Treatment of Gastric Cancer” (J Med Chem, 2023)
# Activity calls are given as the source filed them. The calls are words filed in the database; no cut-off is given here.
# How the values were obtained:
# MGC-803 [1] = assay: Antiproliferative activity against human MGC-803 cells incubated for 48 hrs by SRB assay; assay type: functional, cell-based; conditions: MGC-803, 48 h
# MKN-45 [2] = assay: Antiproliferative activity against human MKN-45 cells incubated for 48 hrs by SRB assay; assay type: functional, cell-based; conditions: MKN-45, 48 h
# [3] = Aqueous solubility of compound in PBS at pH 2; assay type: physicochemical
# [4] = Aqueous solubility of compound in PBS at pH 7.4; assay type: physicochemical
# [5] = Aqueous solubility of compound in PBS at pH 9; assay type: physicochemical
# Myoferlin = Myoferlin (Homo sapiens, UniProt Q9NZM1); assay: Binding affinity to MYOF C2D (unknown origin) expressed in Escherichia coli BL21(DE3) by SPR analysis
# MKN-45 [6] = assay: Antiproliferative activity against MYOF knocked down human MKN-45 cells incubated for 48 hrs by SRB assay; assay type: functional, cell-based
# SGC-7901 = assay: Antiproliferative activity against human SGC-7901 cells incubated for 48 hrs by SRB assay; assay type: functional, cell-based; conditions: SGC-7901, 48 h
# MFC = assay: Antiproliferative activity against MFC cells incubated for 48 hrs by SRB assay; assay type: functional, cell-based; conditions: Mus musculus
# ES-2 = assay: Antiproliferative activity against human ES2 cells incubated for 48 hrs by SRB assay; assay type: functional, cell-based; conditions: ES-2, 48 h
# BXPC-3 = assay: Antiproliferative activity against human BXPC-3 cells incubated for 48 hrs by SRB assay; assay type: functional, cell-based; conditions: BXPC-3, 48 h
# SK-HEP1 = assay: Antiproliferative activity against human SK-HEP1 cells incubated for 48 hrs by SRB assay; assay type: functional, cell-based; conditions: SK-HEP1, 48 h
# CWR22R = assay: Antiproliferative activity against human 22Rv1 cells incubated for 48 hrs by SRB assay; assay type: functional, cell-based; conditions: 22Rv1, 48 h
# DU-145 = assay: Antiproliferative activity against human DU-145 cells incubated for 48 hrs by SRB assay; assay type: functional, cell-based; conditions: DU-145, 48 h
# [7] = Antiproliferative activity against HAF cells incubated for 48 hrs by SRB assay; assay type: functional, cell-based; conditions: Homo sapiens
# MKN-45 [8] = assay: Inhibition of human MKN-45 cells colony formation incubated for 10 days by crystal violet staining based assay; assay type: functional, cell-based; conditions: dose 50-100 nM, time 10.0 day
# [9] = target: Serine/threonine-protein kinase AKT (Homo sapiens) (UniProt P31751+Q9Y243+P31749); assay: Inhibition of AKT phosphorylation in human MKN-45 cells by Western blot analysis; assay type: cell-based
# MGC-803 [10] = assay: Antiinvasive activity against human MGC-803 cells incubated for 24 hrs by crystal violet staining based inverted microscopic analysis; assay type: functional, cell-based
# MKN-45 [11] = assay: Inhibition of epithelial mesenchymal transition in human MKN-45 cells assessed as upregulation in E-cadherin level by Western blotting analysis; assay type: functional, cell-based; conditions: dose 100-400 nM
# MKN-45 [12] = assay: Inhibition of epithelial mesenchymal transition in human MKN-45 cells assessed as downregulation in vimentin level by Western blotting analysis; assay type: functional, cell-based
# MKN-45 [13] = assay: Inhibition of epithelial mesenchymal transition in human MKN-45 cells assessed as downregulation in N-cadherin level by Western blotting analysis; assay type: functional, cell-based
# MKN-45 [14] = assay: Induction of apoptosis in human MKN-45 cells assessed as early apoptotic cells at 100 nM incubated for 48 hrs by Annexin V-FITC/PI staining based flow cytometry analysis (reference value: 0.5%); assay type: functional
# MKN-45 [15] = assay: Induction of apoptosis in human MKN-45 cells assessed as late apoptotic cells at 100 nM incubated for 48 hrs by Annexin V-FITC/PI staining based flow cytometry analysis (reference value: 2.6%); assay type: functional
# MKN-45 [16] = assay: Induction of apoptosis in human MKN-45 cells assessed as early apoptotic cells at 200 nM incubated for 48 hrs by Annexin V-FITC/PI staining based flow cytometry analysis (reference value: 0.5%); assay type: functional
# MKN-45 [17] = assay: Induction of apoptosis in human MKN-45 cells assessed as late apoptotic cells at 200 nM incubated for 48 hrs by Annexin V-FITC/PI staining based flow cytometry analysis (reference value: 2.6%); assay type: functional
# MKN-45 [18] = assay: Induction of apoptosis in human MKN-45 cells assessed as early apoptotic cells at 400 nM incubated for 48 hrs by Annexin V-FITC/PI staining based flow cytometry analysis (reference value: 0.5%); assay type: functional
# MKN-45 [19] = assay: Induction of apoptosis in human MKN-45 cells assessed as late apoptotic cells at 400 nM incubated for 48 hrs by Annexin V-FITC/PI staining based flow cytometry analysis (reference value: 2.6%); assay type: functional
# MKN-45 [20] = assay: Induction of apoptosis in human MKN-45 cells assessed as early apoptotic cells at 800 nM incubated for 48 hrs by Annexin V-FITC/PI staining based flow cytometry analysis (reference value: 0.5%); assay type: functional
# MKN-45 [21] = assay: Induction of apoptosis in human MKN-45 cells assessed as late apoptotic cells at 800 nM incubated for 48 hrs by Annexin V-FITC/PI staining based flow cytometry analysis (reference value: 2.6%); assay type: functional
# Cytochrome P450 2D6 = Cytochrome P450 2D6 (Homo sapiens, UniProt P10635); assay: Inhibition of CYP2D6 in human liver microsomes; assay type: ADME, Microsome
# [22] = target: Voltage-gated inwardly rectifying potassium channel KCNH2 (Homo sapiens, UniProt Q12809); assay: Inhibition of human ERG; assay type: toxicity
# [23] = Cmax in ICR mouse at 1 mg/kg, iv; assay type: ADME, organism-based; set-up: dose 1 mg/kg, route iv; conditions: in vivo
# [24] = Cmax in ICR mouse at 10 mg/kg, po; assay type: ADME, organism-based; set-up: dose 10 mg/kg, route po; conditions: in vivo
# [25] = AUC(0 to t) in ICR mouse at 1 mg/kg, iv; assay type: ADME, organism-based; set-up: dose 1 mg/kg, route iv; conditions: in vivo
# [26] = AUC(0 to t) in ICR mouse at 10 mg/kg, po; assay type: ADME, organism-based; set-up: dose 10 mg/kg, route po; conditions: in vivo
# [27] = AUC(0 to infinity) in ICR mouse at 1 mg/kg, iv; assay type: ADME, organism-based; set-up: dose 1 mg/kg, route iv; conditions: in vivo
# [28] = AUC(0 to infinity) in ICR mouse at 10 mg/kg, po; assay type: ADME, organism-based; set-up: dose 10 mg/kg, route po; conditions: in vivo
# [29] = Half life in ICR mouse at 10 mg/kg, po; assay type: ADME, organism-based; conditions: in vivo
# [30] = Mean residence time in ICR mouse at 1 mg/kg, iv; assay type: ADME, organism-based; conditions: in vivo
# MKN-45 [31] = assay: Antitumor activity against human MKN-45 cells xenografted in BALB/c mouse assessed as tumor growth inhibition at 30 mg/kg/day, ip measured every 3 days for 21 days; assay type: functional; conditions: MKN-45, 504 h, time 21 day, read-out: TGI
# [32] = Toxicity in BALB/c mouse assessed as change in body weight at 15 to 30 mg/kg, ip measured every 3 days for 21 days; assay type: organism-based; conditions: in vivo, 504 h, dose 15-30 mg/kg, time 21 day
# [33] = Toxicity in BALB/c mouse assessed as change in lung morphology at 15 to 30 mg/kg, ip measured every 3 days for 21 days by HE staining based assay; assay type: organism-based; conditions: in vivo, 504 h, dose 15-30 mg/kg, time 21 day
# [34] = Toxicity in BALB/c mouse assessed as change in liver morphology at 15 to 30 mg/kg, ip measured every 3 days for 21 days by HE staining based assay; assay type: organism-based; conditions: in vivo, 504 h, dose 15-30 mg/kg, time 21 day
# [35] = Toxicity in BALB/c mouse assessed as change in kidney morphology at 15 to 30 mg/kg, ip measured every 3 days for 21 days by HE staining based assay; assay type: organism-based; conditions: in vivo, 504 h, dose 15-30 mg/kg, time 21 day
# [36] = Toxicity in BALB/c mouse assessed as change in spleen morphology at 15 to 30 mg/kg, ip measured every 3 days for 21 days by HE staining based assay; assay type: organism-based; conditions: in vivo, 504 h, dose 15-30 mg/kg, time 21 day
# Voltage-gated inwardly rectifying potassium channel KCNH2, sequence (Q12809 whole entry): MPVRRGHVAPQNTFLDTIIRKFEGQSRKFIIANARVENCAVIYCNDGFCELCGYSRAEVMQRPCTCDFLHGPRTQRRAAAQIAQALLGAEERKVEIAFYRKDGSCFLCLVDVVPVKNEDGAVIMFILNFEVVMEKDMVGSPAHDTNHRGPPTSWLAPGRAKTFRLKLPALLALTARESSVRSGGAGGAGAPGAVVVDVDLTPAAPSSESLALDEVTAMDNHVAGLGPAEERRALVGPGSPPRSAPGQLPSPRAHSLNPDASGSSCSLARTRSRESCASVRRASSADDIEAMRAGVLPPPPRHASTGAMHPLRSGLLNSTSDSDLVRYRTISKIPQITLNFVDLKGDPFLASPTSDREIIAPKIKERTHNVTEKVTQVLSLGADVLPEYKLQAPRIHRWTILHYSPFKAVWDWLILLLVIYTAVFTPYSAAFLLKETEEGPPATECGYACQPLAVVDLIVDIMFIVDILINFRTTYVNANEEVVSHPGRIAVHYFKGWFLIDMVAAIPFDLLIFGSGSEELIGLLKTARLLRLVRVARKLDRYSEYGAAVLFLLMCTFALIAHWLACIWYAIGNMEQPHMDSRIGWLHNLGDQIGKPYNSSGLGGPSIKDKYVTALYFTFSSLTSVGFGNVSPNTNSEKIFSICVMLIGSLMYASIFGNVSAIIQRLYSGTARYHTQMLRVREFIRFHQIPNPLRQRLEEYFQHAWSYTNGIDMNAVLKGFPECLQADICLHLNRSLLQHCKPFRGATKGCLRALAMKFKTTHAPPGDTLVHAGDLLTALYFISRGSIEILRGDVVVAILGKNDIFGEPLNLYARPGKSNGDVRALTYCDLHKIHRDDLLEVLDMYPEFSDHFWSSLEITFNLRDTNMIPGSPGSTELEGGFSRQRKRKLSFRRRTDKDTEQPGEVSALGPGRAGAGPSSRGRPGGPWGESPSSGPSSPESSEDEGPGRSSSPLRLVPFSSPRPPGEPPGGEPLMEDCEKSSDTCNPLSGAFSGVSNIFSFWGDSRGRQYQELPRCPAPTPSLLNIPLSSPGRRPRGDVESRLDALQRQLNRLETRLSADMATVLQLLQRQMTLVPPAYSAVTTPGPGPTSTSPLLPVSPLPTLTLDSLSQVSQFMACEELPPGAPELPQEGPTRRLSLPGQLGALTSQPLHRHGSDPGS
# Myoferlin, sequence (Q9NZM1 whole entry): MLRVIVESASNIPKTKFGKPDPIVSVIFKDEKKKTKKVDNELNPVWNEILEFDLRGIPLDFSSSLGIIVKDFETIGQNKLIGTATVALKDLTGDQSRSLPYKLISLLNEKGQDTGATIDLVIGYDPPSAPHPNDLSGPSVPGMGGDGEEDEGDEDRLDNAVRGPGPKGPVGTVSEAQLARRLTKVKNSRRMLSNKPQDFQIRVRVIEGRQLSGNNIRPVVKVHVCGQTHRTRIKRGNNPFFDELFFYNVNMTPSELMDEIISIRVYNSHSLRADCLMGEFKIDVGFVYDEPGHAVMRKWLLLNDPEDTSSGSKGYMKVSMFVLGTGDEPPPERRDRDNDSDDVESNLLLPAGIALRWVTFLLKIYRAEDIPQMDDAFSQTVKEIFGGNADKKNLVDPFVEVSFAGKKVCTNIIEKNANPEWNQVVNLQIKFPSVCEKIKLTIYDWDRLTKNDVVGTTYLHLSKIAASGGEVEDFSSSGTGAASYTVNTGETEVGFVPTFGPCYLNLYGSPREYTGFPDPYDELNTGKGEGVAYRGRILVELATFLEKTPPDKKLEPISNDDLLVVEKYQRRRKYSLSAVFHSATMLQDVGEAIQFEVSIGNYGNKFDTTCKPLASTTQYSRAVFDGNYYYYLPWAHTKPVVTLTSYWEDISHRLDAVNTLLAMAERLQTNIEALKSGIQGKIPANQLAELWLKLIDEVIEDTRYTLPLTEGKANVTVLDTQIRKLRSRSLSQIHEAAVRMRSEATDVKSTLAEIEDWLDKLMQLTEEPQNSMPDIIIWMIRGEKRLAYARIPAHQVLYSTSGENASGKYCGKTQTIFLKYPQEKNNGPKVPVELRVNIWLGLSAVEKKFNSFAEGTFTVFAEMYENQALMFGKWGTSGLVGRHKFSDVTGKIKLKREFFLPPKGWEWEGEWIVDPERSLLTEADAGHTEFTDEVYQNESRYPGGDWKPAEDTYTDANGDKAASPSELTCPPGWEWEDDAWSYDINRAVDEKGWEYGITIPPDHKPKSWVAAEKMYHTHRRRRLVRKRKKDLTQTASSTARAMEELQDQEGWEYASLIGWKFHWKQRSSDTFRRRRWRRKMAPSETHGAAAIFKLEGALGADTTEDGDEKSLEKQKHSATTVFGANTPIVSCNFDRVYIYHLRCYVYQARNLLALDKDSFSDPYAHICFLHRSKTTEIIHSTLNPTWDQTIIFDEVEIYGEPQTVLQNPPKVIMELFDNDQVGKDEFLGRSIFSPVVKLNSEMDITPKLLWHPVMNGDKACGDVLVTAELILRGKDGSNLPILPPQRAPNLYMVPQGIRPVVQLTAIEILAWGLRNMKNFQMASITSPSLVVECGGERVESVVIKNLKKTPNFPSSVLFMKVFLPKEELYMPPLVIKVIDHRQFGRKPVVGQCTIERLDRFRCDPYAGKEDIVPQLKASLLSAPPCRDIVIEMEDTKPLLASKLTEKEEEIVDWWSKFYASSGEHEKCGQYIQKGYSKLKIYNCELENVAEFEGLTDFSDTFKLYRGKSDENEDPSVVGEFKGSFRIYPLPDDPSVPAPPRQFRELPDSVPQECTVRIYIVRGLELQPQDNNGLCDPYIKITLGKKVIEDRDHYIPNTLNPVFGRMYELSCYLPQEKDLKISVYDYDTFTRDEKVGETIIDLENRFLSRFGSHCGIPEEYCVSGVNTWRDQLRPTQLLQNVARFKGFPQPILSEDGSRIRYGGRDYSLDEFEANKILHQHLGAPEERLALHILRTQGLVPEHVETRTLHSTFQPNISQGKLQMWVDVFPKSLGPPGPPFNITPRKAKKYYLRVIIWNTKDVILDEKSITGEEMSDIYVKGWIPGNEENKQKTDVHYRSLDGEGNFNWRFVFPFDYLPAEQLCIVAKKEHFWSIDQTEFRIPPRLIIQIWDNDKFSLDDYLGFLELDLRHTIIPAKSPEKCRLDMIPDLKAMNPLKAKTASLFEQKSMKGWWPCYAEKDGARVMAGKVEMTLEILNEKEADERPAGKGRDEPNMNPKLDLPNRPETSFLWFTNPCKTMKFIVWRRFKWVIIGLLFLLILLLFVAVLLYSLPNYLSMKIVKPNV
# Cytochrome P450 2D6, sequence (P10635 whole entry): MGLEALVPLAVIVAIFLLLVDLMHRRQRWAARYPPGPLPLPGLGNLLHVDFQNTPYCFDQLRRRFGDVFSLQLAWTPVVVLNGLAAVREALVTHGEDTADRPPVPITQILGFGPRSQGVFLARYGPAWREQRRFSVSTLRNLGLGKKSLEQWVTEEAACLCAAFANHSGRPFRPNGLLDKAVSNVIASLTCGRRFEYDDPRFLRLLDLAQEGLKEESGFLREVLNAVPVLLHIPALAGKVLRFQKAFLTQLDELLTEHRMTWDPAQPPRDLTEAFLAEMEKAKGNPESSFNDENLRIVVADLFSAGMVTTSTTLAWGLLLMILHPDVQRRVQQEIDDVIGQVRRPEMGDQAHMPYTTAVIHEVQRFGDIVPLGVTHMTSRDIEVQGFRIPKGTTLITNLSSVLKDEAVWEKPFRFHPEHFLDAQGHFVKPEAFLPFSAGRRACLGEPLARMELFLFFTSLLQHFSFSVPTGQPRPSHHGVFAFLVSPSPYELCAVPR
smiles,measurement,setting,value
CCc1nc(-c2ccc(OC)cc2)n(-c2cccc(C(=O)NCCCCn3nccn3)c2)n1,IC50,MGC-803 [1],160 nM
same,IC50,MKN-45 [2],140 nM
same,solubility,[3],1310 µM
same,solubility,[4],272 µM
same,solubility,[5],258 µM
same,Kd,Myoferlin,170 nM
same,Activity,MKN-45 [6],inactive
same,IC50,SGC-7901,440 nM
same,IC50,MFC,> 10 µM
same,IC50,ES-2,280 nM
same,IC50,BXPC-3,130 nM
same,IC50,SK-HEP1,750 nM
same,IC50,CWR22R,> 10 µM
same,IC50,DU-145,> 10 µM
same,IC50,[7],> 10 µM
same,inhibition,MKN-45 [8],Dose-Dependent Effect
same,inhibition,[9],Active
same,Activity,MGC-803 [10],Dose-Dependent Effect
same,IC50,"MGC-803 [10]; MGC-803, 24 h",60 nM
same,inhibition,MKN-45 [11],Dose-Dependent Effect
same,inhibition,MKN-45 [12],Dose-Dependent Effect
same,inhibition,MKN-45 [13],Dose-Dependent Effect
same,Activity,MKN-45 [14],0.6%
same,Activity,MKN-45 [15],2.8%
same,Activity,MKN-45 [16],1%
same,Activity,MKN-45 [17],4.7%
same,Activity,MKN-45 [18],12.6%
same,Activity,MKN-45 [19],37.6%
same,Activity,MKN-45 [20],13.4%
same,Activity,MKN-45 [21],40.6%
same,IC50,Cytochrome P450 2D6,> 50 µM
same,IC50,[22],> 40 µM
same,Cmax,[23],1910 ng/mL
same,Cmax,[24],5820 ng/mL
same,AUC(0-t),[25],751 ng·h/mL
same,AUC(0-t),[26],4920 ng·h/mL
same,AUC(0-inf),[27],762 ng·h/mL
same,AUC(0-inf),[28],4940 ng·h/mL
same,half-life,[29],38.4 min
same,MRT,[30],17.2 min
same,inhibition in vivo at 30 mg/kg/day,MKN-45 [31],68.5%
same,Activity,[32],Non-Toxic
same,Activity,[33],Non-Toxic
same,Activity,[34],Non-Toxic
same,Activity,[35],Non-Toxic
same,Activity,[36],Non-Toxic
